The record followed here is patent US12478617B2, “Lipidated peptide inhibitors of interleukin-23 receptor” (JANSSEN BIOTECH, INC., priority 2021, dated 2025).

As usually defined, the IC50 is the concentration that gives 50% inhibition.

Starred links: 1 amine or outer side, 2 acyl side, 3 side chain; linkers in the order of their positions; H or OH if unused. Positions of bridges follow the written chain, without caps; N, C: chain ends. Non-standard residues stand in square brackets, D forms with d. Residues, ends and D or L forms follow the SMILES beside them. Groups on a side chain read outwards from the residue. *: point of attachment. Trp(7-Me) = Cc1cccc2c(C[C@H](N)C(=O)O)c[nH]c12; C18 diacid = O=C(O)CCCCCCCCCCCCCCCCC(=O)*; C16 diacid = O=C(O)CCCCCCCCCCCCCCC(=O)*; γGlu = O=C(O)[C@H](CCC(=O)[*:2])N[*:1]; 2Nal = N[C@@H](Cc1ccc2ccccc2c1)C(=O)O; AEF = NCCOc1ccc(C[C@H](N)C(=O)O)cc1; 3Pal = N[C@@H](Cc1cccnc1)C(=O)O; NMeK = CN[C@@H](CCCCN)C(=O)O; Pen = CC(C)(S)[C@H](N)C(=O)O; Thp = NC1(C(=O)O)CCOCC1; AEEA = NCCOCCOCC(=O)O; Sar = CNCC(=O)O

In this assay the target is T1, IL-23R (Homo sapiens, UniProt Q5VWK5).
T1 construct: HEK293 cells containing IL-23R, IL-12RP31 and a firefly luciferase reporter gene driven by a STAT-inducible promoter (Promega); host or cells: HEK293
T1 sequence (Q5VWK5 24-629): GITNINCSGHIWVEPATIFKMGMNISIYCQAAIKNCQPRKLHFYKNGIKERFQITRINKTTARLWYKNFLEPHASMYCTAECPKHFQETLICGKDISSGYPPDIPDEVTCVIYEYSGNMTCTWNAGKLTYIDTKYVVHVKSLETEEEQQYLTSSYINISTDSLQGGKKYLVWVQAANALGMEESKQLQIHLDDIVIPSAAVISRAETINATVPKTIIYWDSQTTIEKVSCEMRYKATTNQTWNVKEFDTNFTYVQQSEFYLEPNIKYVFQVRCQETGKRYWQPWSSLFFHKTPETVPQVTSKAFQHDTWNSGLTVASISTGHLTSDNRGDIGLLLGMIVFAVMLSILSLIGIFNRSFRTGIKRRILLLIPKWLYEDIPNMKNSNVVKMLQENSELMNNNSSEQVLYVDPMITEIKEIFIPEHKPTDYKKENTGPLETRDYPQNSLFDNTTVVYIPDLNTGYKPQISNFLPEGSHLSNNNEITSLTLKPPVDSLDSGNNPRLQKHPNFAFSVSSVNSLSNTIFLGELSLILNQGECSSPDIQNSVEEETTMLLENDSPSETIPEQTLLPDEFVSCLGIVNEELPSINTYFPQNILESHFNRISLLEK
Nature of the assay: IL23R Reporter Assay. The class given is cell-based. From the text:
IL-23 binding to IL-23 receptors results in the activation of the Signal Transducer and Activator of Transcription 3 (STAT3) by phosphorylation and downstream signaling events. Accordingly. the ability of the inhibitors described herein to block IL-23 action can be assessed by monitoring the status of STAT3 activation in response to IL-23. This may be accomplished in reporter cell assays or in intact cells such as peripheral blood mononuclear cells (PBMCs).
Compounds were serially diluted in 100% (v/v) DMSO) and plated using an Echo acoustic dispenser (Labcyte) into 1536-well non-treated black assay plates (Corning #9146). […] After 5 h at 37° C., 5% CO2, 95% relative humidity, cells were placed at 20° C. and treated with BioGlo reagent (Promega) according to the Manufacturer's instructions. Luminescence was measured on a Pherastar FSX (BMG LabTech).
(A reporter such as luciferase makes a cellular process visible.)
As for `CC(=O)NCCCC[C@@H]1NC(=O)[C@H](Cc2c[nH]c3c(C)cccc23)NC(=O)[C@H]([C@@H](C)O)NC(=O)[C@H](CC(N)=O)NC(=O)[C@@H](NC(=O)[C@@H](CCCNC(=N)N)NC(C)=O)C(C)(C)SSC(C)(C)[C@@H](C(=O)N[C@@H](Cc2ccc(OCCN)cc2)C(=O)N[C@@H](Cc2ccc3ccccc3c2)C(=O)NC2(C(=O)N[C@@H](CCC(=O)O)C(=O)N[C@@H](CC(N)=O)C(=O)N[C@@H](Cc3cccnc3)C(=O)N(C)CC(=O)N[C@@H](CCCCNC(=O)COCCOCCNC(=O)COCCOCCNC(=O)CC[C@H](NC(=O)CCCCCCCCCCCCCCC(=O)O)C(=O)O)C(N)=O)CCOCC2)NC1=O` [Example 17, MeCO-r-Pen*-N-T-7MeW-K(Ac)-Pen*-AEF-2Nal-THP-E-N-3Pya-Sar-K(PEG2PEG2gEC16OH)-CONH2] (Ac-[dR][Pen]NT[Trp(7-Me)]K(Ac)[Pen][AEF][2Nal][Thp]EN[3Pal][Sar]K([AEEA-AEEA-γGlu-C16 diacid])-NH2; disulfide 2-7), half-maximal inhibition (IC50) required 0.036 nM.

Compound `CC(=O)NCCCC[C@@H]1NC(=O)[C@H](Cc2c[nH]c3c(C)cccc23)NC(=O)[C@H]([C@@H](C)O)NC(=O)[C@H](CC(N)=O)NC(=O)[C@@H](NC(C)=O)C(C)(C)SSC(C)(C)[C@@H](C(=O)N[C@@H](Cc2ccc(OCCN)cc2)C(=O)N[C@@H](Cc2ccc3ccccc3c2)C(=O)NC2(C(=O)N[C@@H](CCCCNC(=O)COCCOCCNC(=O)COCCOCCNC(=O)CC[C@H](NC(=O)CCCCCCCCCCCCCCC(=O)O)C(=O)O)C(=O)N[C@@H](CC(N)=O)C(=O)N[C@@H](Cc3cccnc3)C(=O)N(C)CC(N)=O)CCOCC2)NC1=O` [Example 19, MeCO-Pen*-N-T-7MeW-K(Ac)-Pen*-AEF-2Nal-THP-K(PEG2PEG2gEC16OH)-N-3Pya-Sar-CONH2] (Ac-[Pen]NT[Trp(7-Me)]K(Ac)[Pen][AEF][2Nal][Thp]K([AEEA-AEEA-γGlu-C16 diacid])N[3Pal][Sar]-NH2; disulfide 1-6) returned an IC50 of 0.037 nM. Compound `CC(=O)NCCCC[C@@H]1NC(=O)[C@H](Cc2c[nH]c3c(C)cccc23)NC(=O)[C@H]([C@@H](C)O)NC(=O)[C@H](CCCCNC(=O)COCCOCCNC(=O)COCCOCCNC(=O)CC[C@H](NC(=O)CCCCCCCCCCCCCCCCC(=O)O)C(=O)O)NC(=O)[C@@H](NC(=O)[C@@H](CCCNC(=N)N)NC(C)=O)C(C)(C)SSC(C)(C)[C@@H](C(=O)N[C@@H](Cc2ccc(OCCN)cc2)C(=O)N[C@@H](Cc2ccc3ccccc3c2)C(=O)NC2(C(=O)N[C@@H](CCC(=O)O)C(=O)N[C@@H](CC(N)=O)C(=O)N[C@@H](Cc3cccnc3)C(=O)N(C)CC(N)=O)CCOCC2)NC1=O` [Example 20, MeCO-r-Pen*-K(PEG2PEG2gEC18OH)-T-7MeW-K(Ac)-Pen*-AEF-2Nal-THP-E-N-3Pya-Sar-CONH2] (Ac-[dR][Pen]K([AEEA-AEEA-γGlu-C18 diacid])T[Trp(7-Me)]K(Ac)[Pen][AEF][2Nal][Thp]EN[3Pal][Sar]-NH2; disulfide 2-7) had a concentration for half-maximal inhibition (IC50) of 0.067 nM. Regarding `CC(=O)NCCCC[C@@H]1NC(=O)[C@H](Cc2c[nH]c3c(C)cccc23)NC(=O)[C@H]([C@@H](C)O)NC(=O)[C@H](CCCCNC(=O)COCCOCCNC(=O)COCCOCCNC(=O)CC[C@H](NC(=O)CCCCCCCCCCCCCCC(=O)O)C(=O)O)NC(=O)[C@@H](NC(=O)[C@@H](CCCNC(=N)N)NC(C)=O)C(C)(C)SSC(C)(C)[C@@H](C(=O)N[C@@H](Cc2ccc(OCCN)cc2)C(=O)N[C@@H](Cc2ccc3ccccc3c2)C(=O)NC2(C(=O)N[C@@H](CCC(=O)O)C(=O)N[C@@H](CC(N)=O)C(=O)N[C@@H](Cc3cccnc3)C(=O)N(C)CC(N)=O)CCOCC2)NC1=O` [Example 21, MeCO-r-Pen*-K(PEG2PEG2gEC16OH)-T-7MeW-K(Ac)-Pen*-AEF-2Nal-THP-E-N-3Pya-Sar-CONH2] (Ac-[dR][Pen]K([AEEA-AEEA-γGlu-C16 diacid])T[Trp(7-Me)]K(Ac)[Pen][AEF][2Nal][Thp]EN[3Pal][Sar]-NH2; disulfide 2-7), it took 0.033 nM to reach half-maximal inhibition (IC50). The same measure for `CC(=O)NCCCC[C@@H]1NC(=O)[C@H](Cc2c[nH]c3c(C)cccc23)NC(=O)[C@H]([C@@H](C)O)NC(=O)[C@H](CC(N)=O)NC(=O)[C@@H](NC(=O)[C@@H](CCCNC(=N)N)NC(C)=O)C(C)(C)SSC(C)(C)[C@@H](C(=O)N[C@@H](Cc2ccc(OCCN)cc2)C(=O)N[C@@H](Cc2ccc3ccccc3c2)C(=O)NC2(C(=O)N[C@@H](CCC(=O)O)C(=O)N[C@@H](CC(N)=O)C(=O)N[C@@H](Cc3cccnc3)C(=O)N(C)[C@@H](CCCCNC(=O)COCCOCCNC(=O)COCCOCCNC(=O)CC[C@H](NC(=O)CCCCCCCCCCCCCCC(=O)O)C(=O)O)C(N)=O)CCOCC2)NC1=O` [Example 22, MeCO-r-Pen*-N-T-7MeW-K(Ac)-Pen*-AEF-2Nal-THP-E-N-3Pya-NMeK(PEG2PEG2gEC16OH)-CONH2] (Ac-[dR][Pen]NT[Trp(7-Me)]K(Ac)[Pen][AEF][2Nal][Thp]EN[3Pal][NMeK]([AEEA-AEEA-γGlu-C16 diacid])-NH2; disulfide 2-7): 0.026 nM; for `CC(=O)NCCCC[C@@H]1NC(=O)[C@H](Cc2c[nH]c3c(C)cccc23)NC(=O)[C@H]([C@@H](C)O)NC(=O)[C@H](CC(N)=O)NC(=O)[C@@H](NC(=O)[C@@H](CCCNC(=N)N)NC(=O)COCCOCCNC(=O)COCCOCCNC(=O)CC[C@H](NC(=O)CCCCCCCCCCCCCCC(=O)O)C(=O)O)C(C)(C)SSC(C)(C)[C@@H](C(=O)N[C@@H](Cc2ccc(OCCN)cc2)C(=O)N[C@@H](Cc2ccc3ccccc3c2)C(=O)NC2(C(=O)N[C@@H](CCCCNC(C)=O)C(=O)N[C@@H](CC(N)=O)C(=O)N[C@@H](Cc3cccnc3)C(=O)N(C)CC(N)=O)CCOCC2)NC1=O` [Example 24, HOC16gEPEG2PEG2-r-Pen*-N-T-7MeW-K(Ac)-Pen*-AEF-2Nal-THP-K(Ac)-N-3Pya-Sar-CONH2] ({C16 diacid-γGlu-AEEA-AEEA}-[dR][Pen]NT[Trp(7-Me)]K(Ac)[Pen][AEF][2Nal][Thp]K(Ac)N[3Pal][Sar]-NH2; disulfide 2-7): 0.017 nM. Under `CC(=O)NCCCC[C@@H]1NC(=O)[C@H](Cc2c[nH]c3c(C)cccc23)NC(=O)[C@H]([C@@H](C)O)NC(=O)[C@H](CC(N)=O)NC(=O)[C@@H](NC(=O)[C@@H](CCCNC(=N)N)NC(C)=O)C(C)(C)SSC(C)(C)[C@@H](C(=O)N[C@@H](Cc2ccc(OCCNC(=O)COCCOCCNC(=O)COCCOCCNC(=O)CC[C@H](NC(=O)CCCCCCCCCCCCCCC(=O)O)C(=O)O)cc2)C(=O)N[C@@H](Cc2ccc3ccccc3c2)C(=O)NC2(C(=O)N[C@@H](CCCCNC(C)=O)C(=O)N[C@@H](CC(N)=O)C(=O)N[C@@H](Cc3cccnc3)C(=O)N(C)CC(N)=O)CCOCC2)NC1=O` [Example 26, MeCO-r-Pen*-N-T-7MeW-K(Ac)-Pen*-AEF(PEG2PEG2gEC16OH)-2Nal-THP-K(Ac)-N-3Pya-Sar-CONH2] (Ac-[dR][Pen]NT[Trp(7-Me)]K(Ac)[Pen][AEF]([AEEA-AEEA-γGlu-C16 diacid])[2Nal][Thp]K(Ac)N[3Pal][Sar]-NH2; disulfide 2-7) stands 0.025 nM; under `CC(=O)NCCCC[C@@H]1NC(=O)[C@H](Cc2c[nH]c3c(C)cccc23)NC(=O)[C@H]([C@@H](C)O)NC(=O)[C@H](CC(N)=O)NC(=O)[C@@H](NC(=O)[C@@H](CCCNC(=N)N)NC(C)=O)C(C)(C)SSC(C)(C)[C@@H](C(=O)N[C@@H](Cc2ccc(OCCN)cc2)C(=O)N[C@@H](Cc2ccc3ccccc3c2)C(=O)NC2(C(=O)N[C@@H](CCCCNC(=O)COCCOCCNC(=O)COCCOCCNC(=O)CC[C@H](NC(=O)CCCCCCCCCCCCCCCCC(=O)O)C(=O)O)C(=O)N[C@@H](CC(N)=O)C(=O)N[C@@H](Cc3cccnc3)C(=O)N(C)CC(N)=O)CCOCC2)NC1=O` [Example 27, MeCO-r-Pen*-N-T-7MeW-K(Ac)-Pen*-AEF-2Nal-THP-K(PEG2PEG2gEC18OH)-N-3Pya-Sar-CONH2] (Ac-[dR][Pen]NT[Trp(7-Me)]K(Ac)[Pen][AEF][2Nal][Thp]K([AEEA-AEEA-γGlu-C18 diacid])N[3Pal][Sar]-NH2; disulfide 2-7), 0.059 nM; under `CC(=O)NCCCC[C@@H]1NC(=O)[C@H](Cc2c[nH]c3c(C)cccc23)NC(=O)[C@H]([C@@H](C)O)NC(=O)[C@H](CC(N)=O)NC(=O)[C@@H](NC(C)=O)C(C)(C)SSC(C)(C)[C@@H](C(=O)N[C@@H](Cc2ccc(OCCN)cc2)C(=O)N[C@@H](Cc2ccc3ccccc3c2)C(=O)NC2(C(=O)N[C@@H](CCCCNC(=O)CC[C@H](NC(=O)CCCCCCCCCCCCCCC(=O)O)C(=O)O)C(=O)N[C@@H](CC(N)=O)C(=O)N[C@@H](Cc3cccnc3)C(=O)N(C)CC(N)=O)CCOCC2)NC1=O` [Example 29, MeCO-Pen*-N-T-7MeW-K(Ac)-Pen*-AEF-2Nal-THP-K(gEC16OH)-N-3Pya-Sar-CONH2] (Ac-[Pen]NT[Trp(7-Me)]K(Ac)[Pen][AEF][2Nal][Thp]K([γGlu-C16 diacid])N[3Pal][Sar]-NH2; disulfide 1-6), 0.06 nM.
